# Experimental data taken from patent US10945989B2, “Perinatal treatment with a flavonoid agonist of the TrkB receptor for BDNF rescues neurogenesis and behavior in the Ts65Dn mouse model of DS” (ALMA MATER STUDIORUM—Universita' di Bologna, priority 2017, dated 2021).
# How the values were obtained:
# [1] = system: NPCs from the SVZ of Ts65Dn mice; assay: Differentiation of NPC cultures (MAP2/Nestin immunolocalization); assay type: cell-based, mouse; conditions: 96 h, differentiating conditions
# Method: (§1) Cells were isolated from the subventricular zone (SVZ) of the lateral ventricle and the subgranular zone (SGZ) of the hippocampal dentate gyrus (DG) of newborn (P1-P2) euploid and Ts65Dn mice. Briefly, brains were removed, the SVZ and SGZ regions were isolated and individually collected in ice-cold PIPES buffer pH 7.4. After centrifugation, tissue was digested for 10 min at 37° C. using Trypsin/EDTA 0.25% (Life Technologies) aided by gentle mechanical dissociation. Cell suspension from each individual mouse was plated onto 25 cm^2 cell-culture flask (Thermo Fisher Scientific) and cultured as floating neurospheres in medium containing basic fibroblast growth factor (bFGF, 10 ng/ml; Peprotech) and epidermal growth factor (EGF, 20 ng/ml; Peprotech) using an established protocol (Meneghini et al., 2014). […] Cell proliferation was quantified as relative luminescence units (RLU) values using Cell Titer-Glo viability assay reagent (Promega) on aVictor^3-V plate reader (PerkinElmer). […] In each experiment, five fields/well (corresponding to about 150-200 cells/well) were counted with a 60× objective by a Leica DMIRB inverted fluorescence microscope. Immunoreactive cells were counted and their percentage over total viable cells was calculated. […]
# [2] = system: NPCs from the SVZ of Ts65Dn mice; assay: Neuron maturation: cells exhibiting neuritic processes, SVZ NPCs; assay type: cell-based, mouse; conditions: 96 h, vs standard medium
# Method: as §1
# [3] = Mortality before weaning, neonatal treatment
# Description: Treatment with either 7,8-DHFor vehicle began on postnatal day 3(P3). All mice that survived in the P0 to P3 period entered this study, with no specific selection criteria. Total of 185 mice entered the study (96 males and 89 females). The number of vehicle-treated and 7,8-DHF treated mice was 96 and 89, respectively.
# The Ts65Dn strain is characterized by a high mortality rate during gestation (Roper et al., 2006). […] In the current study, treatment with either 7,8-DHF or vehicle began on postnatal day 3 (P3). All mice that survived in the P0 to P3 period entered this study, with no specific selection criteria.
# Ts65Dn and euploid mice = assay: Morris Water Maze, probe test; assay type: in vivo, mouse
# TrkB receptor = TrkB receptor (Homo sapiens, UniProt Q16620); conditions: Liu et al., 2010 and 2013; cited from earlier work
# TrkB receptor, sequence (Q16620 32-822): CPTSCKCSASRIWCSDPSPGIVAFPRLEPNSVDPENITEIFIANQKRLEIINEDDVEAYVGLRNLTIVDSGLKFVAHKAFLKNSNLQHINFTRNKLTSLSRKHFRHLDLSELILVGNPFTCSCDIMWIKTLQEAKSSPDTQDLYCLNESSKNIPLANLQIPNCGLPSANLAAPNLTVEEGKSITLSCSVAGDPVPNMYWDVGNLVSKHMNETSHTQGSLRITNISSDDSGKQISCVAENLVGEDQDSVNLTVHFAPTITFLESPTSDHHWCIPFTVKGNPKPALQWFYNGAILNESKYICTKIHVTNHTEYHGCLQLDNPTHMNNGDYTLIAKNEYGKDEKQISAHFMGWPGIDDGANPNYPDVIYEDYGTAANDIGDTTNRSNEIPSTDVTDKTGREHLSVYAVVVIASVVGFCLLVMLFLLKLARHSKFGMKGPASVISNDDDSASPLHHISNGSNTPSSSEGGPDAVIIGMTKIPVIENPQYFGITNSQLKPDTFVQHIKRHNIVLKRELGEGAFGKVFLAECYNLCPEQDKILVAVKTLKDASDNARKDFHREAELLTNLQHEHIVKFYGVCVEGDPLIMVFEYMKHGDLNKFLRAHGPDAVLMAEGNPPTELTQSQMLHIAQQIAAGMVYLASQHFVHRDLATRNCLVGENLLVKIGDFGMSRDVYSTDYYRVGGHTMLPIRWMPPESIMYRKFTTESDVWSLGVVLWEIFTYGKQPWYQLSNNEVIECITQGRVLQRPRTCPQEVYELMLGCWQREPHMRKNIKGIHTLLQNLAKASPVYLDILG
# [4] = dose of 5.0 mg/kg, Liu et al., 2010; cited from earlier work
# [5] = Ts65Dn mice, became similar to untreated euploid mice
compound,measurement,setting,value
"O=c1cc(-c2ccccc2)oc2c(O)c(O)ccc12 [7,8-DHF, 7,8-dihydroxyflavone]",percentage of Nestin+/MAP2- cells,[1],no change
same,percentage of MAP2+/Nestin− cells,"[1]; all concentrations, vs standard medium",large increase
same,doses that increased the percentage of cells exhibiting neuritic processes,[2],higher than 0.3 μM
same,adverse effects on the health of mice,"[3]; mouse, in vivo",no adverse effects on the health of mice
same,mice that died before weaning,"[3]; treatment from P3, deaths in the P6-P22 period, vehicle 7.3%",5.6%
same,percentage of time spent at the periphery (probe test),Ts65Dn and euploid mice; Ts65Dn mice,reduced in comparison with their untreated counterparts
same,frequency of entrances in the former quadrant,Ts65Dn and euploid mice; [5],notable increase in the frequency
same,latency to enter the former platform zone,Ts65Dn and euploid mice; [5],notable reduction in their latency
same,proximity to the former platform position,Ts65Dn and euploid mice; [5],swam closer to the former platform zone
same,percentage of time spent in quadrants,"Ts65Dn and euploid mice; Ts65Dn mice, vs SE quadrant only marginally significant",significantly more time in the former platform quadrant in comparison with the NE quadrant
same,frequency of entrances in the former quadrant,Ts65Dn and euploid mice; euploid mice,large increase in the frequency of entrances
same,percentage of time spent at the periphery (probe test),"Ts65Dn and euploid mice; euploid mice, treated vs. untreated",reduction in the percentage of time at the periphery
same,percentage of time spent in quadrants,"Ts65Dn and euploid mice; euploid mice, vs NE and SE quadrants",significantly more time in the former platform quadrant
same,binding to the TrkB receptor,TrkB receptor,high affinity and specificity
same,toxic effects,[4],no toxic effects
